In US20250134870A1, “PATHWAY MODULATOR, PHARMACEUTICAL COMPOSITION HAVING SAME, USE THEREOF, AND THERAPEUTIC METHOD USING SAME” (Jiangsu Yahong Meditech Co., Ltd., priority 2021, published 2025):
Read-outs that look alike come from different tables or passages of the source.

Legend:
Type in all cases: in vivo, Wistar rats
[1] = test system: 2,4-dinitrobenzenesulfonic acid (DNBS)-induced colitis; experiment: DNBS-induced colitis in rats: pathological score of colon tissue (H&E)
Excerpt: The proximal, ulcer (corresponding sites can be taken, if there was no ulcer) and distal parts of the colon tissue fixed by neutral buffered formalin were embedded with paraffin, sectioned (thickness 5 μm), and histopathological score was given by H&E staining.

[2] = test system: 2,4-dinitrobenzenesulfonic acid (DNBS)-induced colitis; experiment: DNBS-induced enteritis/colitis in rats: body weight and stool score (Example 10); details: positive control drug
Protocol: The 90 animals were randomly grouped on Day-1 (i.e., the day before the experiment) based on animal body weight to ensure that the body weight of each group of animals were similar, so as to reduce bias. Rats were fasted for 40 hours before the experiment and were injected subcutaneously with 5% glucose saline (10 mL/kg, once daily) during fasting. • Experimental grouping:
On Day 1 of the experiment, fasting rats were anesthetized by intraperitoneal injection with Zoletil (25 mg/kg Tiletamine and 25 mg/kg Zolazepam) and 5 mg/kg Xylazine.
In groups G2-G6, a hose was inserted from the anus to left colic flexure (about 8 cm from the anus) and colitis was induced by DNBS enema (0.5 mL/animal) in rats. The normal control group (G1) received 30% ethanol enema by the same process. The head of the animal after enema was lowered for 15 min, and then the animal was kept in Trendelenburg position until waked to avoid backflow of the enema fluid.
The percentage of body weight was calculated according to the following formula: (body weight on Day X-initial weight)/initial weight]×100%.
(2) Stool score: during the experiment, the stool state of rats was scored daily (0=normal, 1=wet/sticky, 2=loose, 3=liquid).

[3] = test system: 2,4-dinitrobenzenesulfonic acid (DNBS)-induced colitis; experiment: DNBS-induced colitis in rats: macroscopic evaluation of colon on Day 7 (colon length, weight, ulcer area, CW/CL, CW/BW, CW/CL/BW); details: for inhibition at 9 mg/kg: Rattus norvegicus, 168 h
Protocol: (3) Colon observation: after the end of the experiment, all animals were anesthetized with Zoletil (intravenous injection, 25 mg/kg) and the abdominal cavity was opened. Blood was collected from the abdominal aorta with EDTA anticoagulation (centrifugation conditions: 4° C., 2,000 g, 10 min). After the animals were sacrificed by bloodletting, the colon (from the cecum to the anus) was dissected and the colon length was measured immediately. The colon was longitudinally incised and rinsed until clean. Then the colon weight and ulcer area were recorded, and the colon was photographed as a whole and divided into three parts, among which two parts were stored at −80° C. after flash freezing with liquid nitrogen for MPO and cytokine detection, and the other part of colon was fixed with 10% neutral buffered formalin. If the ulcer was irregularly shaped, it could be considered as rectangular, and then its length and width were measured for ulcer area assessment. Ulcer area (cm^2)=ulcer length (cm)×ulcer width (cm).

Compound: C[C@]12C=CC(=O)C=C1CC[C@@H]1[C@@H]2C(=O)C[C@@]2(C)[C@H]1CC[C@]2(O)C(=O)CO [Prednisone]
- Pathological score, Distal end, Damage ([1]; mean, G3, 9 mg/kg PO QD × 7): 1.33
- Pathological score, Distal end, Inflammation ([1]; mean, G3, 9 mg/kg PO QD × 7): 2.00
- Pathological score, Proximal end, Damage ([1]; mean, G3, 9 mg/kg PO QD × 7): 0.80
- Pathological score, Proximal end, Inflammation ([1]; mean, G3, 9 mg/kg PO QD × 7): 1.73
- Pathological score, Total score, Damage ([1]; mean, G3, 9 mg/kg PO QD × 7): 4.00
- Pathological score, Total score, Inflammation ([1]; mean, G3, 9 mg/kg PO QD × 7): 6.07
- Pathological score, Ulcer end, Damage ([1]; mean, G3, 9 mg/kg PO QD × 7): 1.87
- Pathological score, Ulcer end, Inflammation ([1]; mean, G3, 9 mg/kg PO QD × 7): 2.33
- inflammatory cell infiltration score of colon ulcer end ([1]; positive control drug): significantly reduce
- stool form score AUC [2]: significantly reduce
- inhibition at 9 mg/kg ([3]; G3, 9 mg/kg PO QD × 7, read-out: IR1 (inhibition rate 1, CW/CL/BW)): 44.2%
- inhibition at 9 mg/kg ([3]; G3, 9 mg/kg PO QD × 7, read-out: IR2 (inhibition rate 2, CW/BW)): 50.1%
- inhibition at 9 mg/kg ([3]; G3, 9 mg/kg PO QD × 7, read-out: IR3 (inhibition rate 3, CW/CL)): 46.5%
- BW ([3]; mean, G3, 9 mg/kg PO QD × 7): 162.92 g
- CW/BW ×100 ([3]; mean, G3, 9 mg/kg PO QD × 7): 0.99
- Ulcer area ([3]; mean, G3, 9 mg/kg PO QD × 7): 1.26 cm^2
- Ulcer length ([3]; mean, G3, 9 mg/kg PO QD × 7): 0.77 cm
- Ulcer width ([3]; mean, G3, 9 mg/kg PO QD × 7): 0.85 cm
- colon weight ([3]; positive control drug): significantly reduce
